Our source for the Activity, IC50 and inhibition values is ChEMBL document CHEMBL5696441 (Nat Chem Biol, 2011).

Series [1] addresses Serine/threonine-protein kinase 3 (Homo sapiens) (UniProt Q13188). Kind of series: Inhibition of MST2 (unknown origin) assessed as remaining activity at 1 uM by Kinome scan method relative to control.
Series [2] has as its target Serine/threonine-protein kinase Nek5 (Homo sapiens) (UniProt Q6P3R8). Kind of series: Inhibition of NEK5 (unknown origin) assessed as remaining activity at 1 uM by Kinome scan method relative to control.
Series [3] deals with Serine/threonine-protein kinase PAK 2 (Homo sapiens) (UniProt Q13177). As to the kind of experiment: Inhibition of PAK2 (unknown origin) assessed as remaining activity at 1 uM by Kinome scan method relative to control.
The target of series [4] is T1, Tyrosine-protein kinase JAK3 (Homo sapiens) (UniProt P52333).
T1 sequence (whole entry): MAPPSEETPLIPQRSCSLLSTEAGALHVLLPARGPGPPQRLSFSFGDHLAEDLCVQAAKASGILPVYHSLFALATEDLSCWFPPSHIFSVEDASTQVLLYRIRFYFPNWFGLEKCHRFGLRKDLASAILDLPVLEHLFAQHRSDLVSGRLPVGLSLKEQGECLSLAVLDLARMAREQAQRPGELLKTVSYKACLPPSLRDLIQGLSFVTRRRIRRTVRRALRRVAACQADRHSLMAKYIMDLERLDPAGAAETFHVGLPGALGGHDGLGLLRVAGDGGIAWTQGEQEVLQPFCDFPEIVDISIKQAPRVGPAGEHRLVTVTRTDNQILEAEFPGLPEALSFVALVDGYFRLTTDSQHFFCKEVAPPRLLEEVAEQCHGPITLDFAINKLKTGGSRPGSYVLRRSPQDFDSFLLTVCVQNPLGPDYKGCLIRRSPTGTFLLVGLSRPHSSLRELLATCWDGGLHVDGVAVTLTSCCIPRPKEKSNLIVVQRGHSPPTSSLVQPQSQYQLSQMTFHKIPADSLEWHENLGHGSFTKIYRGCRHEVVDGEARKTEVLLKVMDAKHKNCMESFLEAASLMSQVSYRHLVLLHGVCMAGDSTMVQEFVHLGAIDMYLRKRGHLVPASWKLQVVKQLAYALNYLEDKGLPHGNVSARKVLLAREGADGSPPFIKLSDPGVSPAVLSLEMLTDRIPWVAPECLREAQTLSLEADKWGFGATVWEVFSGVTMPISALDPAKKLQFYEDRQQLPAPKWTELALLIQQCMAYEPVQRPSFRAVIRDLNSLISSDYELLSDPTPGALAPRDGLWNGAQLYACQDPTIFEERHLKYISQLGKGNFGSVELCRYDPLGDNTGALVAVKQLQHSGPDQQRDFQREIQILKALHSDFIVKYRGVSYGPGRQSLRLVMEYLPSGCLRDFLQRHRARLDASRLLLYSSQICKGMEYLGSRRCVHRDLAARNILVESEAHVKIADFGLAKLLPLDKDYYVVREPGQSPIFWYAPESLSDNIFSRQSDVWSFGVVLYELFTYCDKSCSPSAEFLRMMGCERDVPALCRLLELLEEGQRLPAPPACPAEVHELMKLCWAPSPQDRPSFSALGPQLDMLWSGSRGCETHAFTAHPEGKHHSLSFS
As to the kind of experiment: Inhibition of human JAK3 assessed as residual activity at 1 uM using poly(Ala,Glu,Lys,Tyr)6:2:5:1 as substrate in presence of 33P-ATP by ProQinase assay relative to control.

Series [5] concerns the target MAP kinase-activated protein kinase 2 (Homo sapiens) (UniProt P49137). Kind of series: Inhibition of human MAPKAPK2 assessed as residual activity at 1 uM using RBER-CHKtide as substrate in presence of 33P-ATP by ProQinase assay relative to control.
The target in series [6] is Serine/threonine-protein kinase 4 (Homo sapiens) (UniProt Q13043). As to the kind of experiment: Inhibition of human MST1 assessed as residual activity at 1 uM using RB-CTF as substrate in presence of 33P-ATP by ProQinase assay relative to control.
In series [7] the target is Serine/threonine-protein kinase mTOR (Homo sapiens) (UniProt P42345). Kind of series: Inhibition of human mTOR assessed as residual activity at 1 uM using casein as substrate in presence of 33P-ATP by ProQinase assay relative to control.
Series [8] concerns the target Myosin light chain kinase 2, skeletal/cardiac muscle (Homo sapiens) (UniProt Q9H1R3). Kind of series: Inhibition of human MYLK2 assessed as residual activity at 1 uM using RB-S6P as substrate in presence of 33P-ATP by ProQinase assay relative to control.
Series [9] has as its target PAS domain-containing serine/threonine-protein kinase (Homo sapiens) (UniProt Q96RG2). Kind of series: Inhibition of human PASK assessed as residual activity at 1 uM using RBER-CHKtide as substrate in presence of 33P-ATP by ProQinase assay relative to control.
For series [10], the target named is T2, Tyrosine-protein kinase TXK (Homo sapiens) (UniProt P42681).
T2 sequence (whole entry): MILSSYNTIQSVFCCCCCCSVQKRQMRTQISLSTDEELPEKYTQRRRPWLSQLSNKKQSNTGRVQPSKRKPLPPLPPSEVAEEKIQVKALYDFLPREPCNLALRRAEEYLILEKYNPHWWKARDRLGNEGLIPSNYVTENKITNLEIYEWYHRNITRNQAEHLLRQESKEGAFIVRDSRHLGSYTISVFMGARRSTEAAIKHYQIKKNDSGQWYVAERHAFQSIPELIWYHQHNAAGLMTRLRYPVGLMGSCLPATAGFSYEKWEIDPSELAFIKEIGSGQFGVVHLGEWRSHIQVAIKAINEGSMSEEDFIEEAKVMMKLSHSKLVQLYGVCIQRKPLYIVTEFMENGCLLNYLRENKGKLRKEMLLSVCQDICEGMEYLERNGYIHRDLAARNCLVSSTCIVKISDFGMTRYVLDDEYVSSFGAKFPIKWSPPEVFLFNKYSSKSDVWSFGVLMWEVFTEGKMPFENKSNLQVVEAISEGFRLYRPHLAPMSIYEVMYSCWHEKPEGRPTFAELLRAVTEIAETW
As to the kind of experiment: Inhibition of human TXK assessed as residual activity at 1 uM using RBER-CHKtide as substrate in presence of 33P-ATP by ProQinase assay relative to control.

Series [11] can be described thus: Anti-inflammatory activity against human derived high respond PBMC cells assessed as inhibition in stimulated TARC chemokine release incubated for 2 hrs in the presence of LPS/SEB/aCD28 by Luminex based sandwich immunoassay. Type of series: functional, cell-based.
The target of the next series is CYP2D6 (Homo sapiens, UniProt P10635). Kind of series: Inhibition of CYP2D6 (unknown origin) at 10 uM relative to control. The format is ADME.
Sequence of CYP2D6 (P10635 whole entry): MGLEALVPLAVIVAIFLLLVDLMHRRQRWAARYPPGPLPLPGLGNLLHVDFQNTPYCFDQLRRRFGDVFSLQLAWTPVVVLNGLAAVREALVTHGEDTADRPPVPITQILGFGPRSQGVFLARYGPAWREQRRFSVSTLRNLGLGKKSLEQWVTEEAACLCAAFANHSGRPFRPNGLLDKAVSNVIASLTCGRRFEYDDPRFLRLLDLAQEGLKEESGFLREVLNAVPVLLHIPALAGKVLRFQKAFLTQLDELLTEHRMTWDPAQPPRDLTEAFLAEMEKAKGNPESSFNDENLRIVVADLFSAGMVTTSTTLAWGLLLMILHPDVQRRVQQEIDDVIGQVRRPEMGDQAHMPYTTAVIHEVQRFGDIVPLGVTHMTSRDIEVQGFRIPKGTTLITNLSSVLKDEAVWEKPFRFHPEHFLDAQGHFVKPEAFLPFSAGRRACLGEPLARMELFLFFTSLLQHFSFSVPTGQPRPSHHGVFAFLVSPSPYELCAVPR

Sequence of MAP kinase-activated protein kinase 2 (Homo sapiens) (P49137 whole entry, looked up): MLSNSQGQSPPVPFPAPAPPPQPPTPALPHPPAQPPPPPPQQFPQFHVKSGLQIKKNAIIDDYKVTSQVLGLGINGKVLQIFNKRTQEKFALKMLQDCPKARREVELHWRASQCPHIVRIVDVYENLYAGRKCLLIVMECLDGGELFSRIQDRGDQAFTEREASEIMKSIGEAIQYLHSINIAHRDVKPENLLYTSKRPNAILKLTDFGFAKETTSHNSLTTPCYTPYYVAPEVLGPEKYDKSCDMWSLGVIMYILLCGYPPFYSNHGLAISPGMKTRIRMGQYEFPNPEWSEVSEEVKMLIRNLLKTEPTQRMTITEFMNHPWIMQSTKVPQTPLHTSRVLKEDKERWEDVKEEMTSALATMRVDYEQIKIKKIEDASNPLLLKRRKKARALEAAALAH
Sequence of PAS domain-containing serine/threonine-protein kinase (Homo sapiens) (Q96RG2 whole entry, the tested form may be a part): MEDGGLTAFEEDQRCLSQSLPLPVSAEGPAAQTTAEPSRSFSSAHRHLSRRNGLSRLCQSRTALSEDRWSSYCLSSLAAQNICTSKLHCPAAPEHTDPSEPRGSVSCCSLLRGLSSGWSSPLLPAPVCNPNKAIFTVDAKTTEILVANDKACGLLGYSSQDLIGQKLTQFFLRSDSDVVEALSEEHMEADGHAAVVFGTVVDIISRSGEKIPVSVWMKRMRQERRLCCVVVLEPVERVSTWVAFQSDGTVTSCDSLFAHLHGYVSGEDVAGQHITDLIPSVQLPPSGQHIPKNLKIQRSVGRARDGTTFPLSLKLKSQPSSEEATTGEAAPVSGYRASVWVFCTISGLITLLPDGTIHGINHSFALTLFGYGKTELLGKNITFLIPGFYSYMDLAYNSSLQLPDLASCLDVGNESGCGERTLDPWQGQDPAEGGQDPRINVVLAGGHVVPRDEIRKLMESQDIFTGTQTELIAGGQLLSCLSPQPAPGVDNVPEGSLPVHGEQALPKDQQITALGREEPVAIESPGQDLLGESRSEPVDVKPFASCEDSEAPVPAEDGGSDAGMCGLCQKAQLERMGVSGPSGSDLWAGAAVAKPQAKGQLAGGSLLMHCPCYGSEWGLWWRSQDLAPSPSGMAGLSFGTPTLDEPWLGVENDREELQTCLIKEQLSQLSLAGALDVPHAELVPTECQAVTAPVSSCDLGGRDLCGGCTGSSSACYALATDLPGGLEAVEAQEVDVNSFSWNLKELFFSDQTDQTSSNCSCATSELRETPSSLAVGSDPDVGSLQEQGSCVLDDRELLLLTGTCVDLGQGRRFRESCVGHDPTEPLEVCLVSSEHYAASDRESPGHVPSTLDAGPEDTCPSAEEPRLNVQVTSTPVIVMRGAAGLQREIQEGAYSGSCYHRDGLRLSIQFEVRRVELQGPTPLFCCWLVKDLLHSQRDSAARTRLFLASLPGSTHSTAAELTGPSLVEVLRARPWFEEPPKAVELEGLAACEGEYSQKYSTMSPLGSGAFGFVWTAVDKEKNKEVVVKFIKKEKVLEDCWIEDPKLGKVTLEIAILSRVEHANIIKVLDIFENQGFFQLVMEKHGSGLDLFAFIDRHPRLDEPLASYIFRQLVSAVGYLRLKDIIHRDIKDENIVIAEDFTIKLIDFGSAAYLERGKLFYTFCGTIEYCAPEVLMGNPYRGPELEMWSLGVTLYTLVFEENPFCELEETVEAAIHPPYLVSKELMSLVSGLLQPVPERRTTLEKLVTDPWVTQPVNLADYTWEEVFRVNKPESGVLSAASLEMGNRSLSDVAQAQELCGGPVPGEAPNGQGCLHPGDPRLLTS
Sequence of Serine/threonine-protein kinase 3 (Homo sapiens) (Q13188 whole entry): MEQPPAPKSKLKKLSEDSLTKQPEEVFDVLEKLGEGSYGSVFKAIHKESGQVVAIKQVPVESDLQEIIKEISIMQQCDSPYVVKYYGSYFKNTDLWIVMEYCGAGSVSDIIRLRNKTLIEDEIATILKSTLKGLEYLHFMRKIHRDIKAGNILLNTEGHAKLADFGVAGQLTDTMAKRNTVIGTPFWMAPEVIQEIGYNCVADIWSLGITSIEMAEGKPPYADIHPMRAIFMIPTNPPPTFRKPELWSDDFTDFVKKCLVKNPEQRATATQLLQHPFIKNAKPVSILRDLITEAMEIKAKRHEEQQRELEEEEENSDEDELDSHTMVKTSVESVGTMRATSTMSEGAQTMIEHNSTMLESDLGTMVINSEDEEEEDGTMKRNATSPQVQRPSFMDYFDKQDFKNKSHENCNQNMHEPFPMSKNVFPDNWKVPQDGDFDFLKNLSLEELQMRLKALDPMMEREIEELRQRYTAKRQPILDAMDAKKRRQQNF
Sequence of Serine/threonine-protein kinase PAK 2 (Homo sapiens) (Q13177 whole entry): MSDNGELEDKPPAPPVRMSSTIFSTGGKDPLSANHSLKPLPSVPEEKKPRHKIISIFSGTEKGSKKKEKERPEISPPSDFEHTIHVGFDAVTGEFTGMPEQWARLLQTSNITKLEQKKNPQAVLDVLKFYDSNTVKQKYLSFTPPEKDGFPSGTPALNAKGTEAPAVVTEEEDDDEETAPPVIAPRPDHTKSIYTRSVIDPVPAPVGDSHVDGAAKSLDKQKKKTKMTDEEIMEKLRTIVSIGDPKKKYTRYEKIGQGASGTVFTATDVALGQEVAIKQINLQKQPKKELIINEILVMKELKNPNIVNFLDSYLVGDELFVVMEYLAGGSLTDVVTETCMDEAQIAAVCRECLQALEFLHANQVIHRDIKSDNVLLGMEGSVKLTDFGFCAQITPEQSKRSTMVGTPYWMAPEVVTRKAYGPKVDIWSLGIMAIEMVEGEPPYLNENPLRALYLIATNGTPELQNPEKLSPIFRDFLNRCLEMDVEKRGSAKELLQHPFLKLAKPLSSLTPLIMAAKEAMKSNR
Sequence of Serine/threonine-protein kinase 4 (Homo sapiens) (Q13043 whole entry): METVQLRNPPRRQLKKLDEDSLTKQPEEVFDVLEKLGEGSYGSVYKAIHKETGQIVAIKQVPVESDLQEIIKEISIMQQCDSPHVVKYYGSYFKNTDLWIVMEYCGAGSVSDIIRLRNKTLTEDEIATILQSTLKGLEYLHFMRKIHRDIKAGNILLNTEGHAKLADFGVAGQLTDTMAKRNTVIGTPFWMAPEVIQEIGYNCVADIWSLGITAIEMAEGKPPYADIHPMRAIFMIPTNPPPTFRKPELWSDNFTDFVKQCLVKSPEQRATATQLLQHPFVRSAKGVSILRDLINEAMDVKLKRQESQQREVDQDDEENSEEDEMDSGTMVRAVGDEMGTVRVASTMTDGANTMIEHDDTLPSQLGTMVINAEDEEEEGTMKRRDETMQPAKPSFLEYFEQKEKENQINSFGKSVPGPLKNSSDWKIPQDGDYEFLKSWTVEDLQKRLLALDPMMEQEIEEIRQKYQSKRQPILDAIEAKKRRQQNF
Sequence of Serine/threonine-protein kinase Nek5 (Homo sapiens) (Q6P3R8 whole entry): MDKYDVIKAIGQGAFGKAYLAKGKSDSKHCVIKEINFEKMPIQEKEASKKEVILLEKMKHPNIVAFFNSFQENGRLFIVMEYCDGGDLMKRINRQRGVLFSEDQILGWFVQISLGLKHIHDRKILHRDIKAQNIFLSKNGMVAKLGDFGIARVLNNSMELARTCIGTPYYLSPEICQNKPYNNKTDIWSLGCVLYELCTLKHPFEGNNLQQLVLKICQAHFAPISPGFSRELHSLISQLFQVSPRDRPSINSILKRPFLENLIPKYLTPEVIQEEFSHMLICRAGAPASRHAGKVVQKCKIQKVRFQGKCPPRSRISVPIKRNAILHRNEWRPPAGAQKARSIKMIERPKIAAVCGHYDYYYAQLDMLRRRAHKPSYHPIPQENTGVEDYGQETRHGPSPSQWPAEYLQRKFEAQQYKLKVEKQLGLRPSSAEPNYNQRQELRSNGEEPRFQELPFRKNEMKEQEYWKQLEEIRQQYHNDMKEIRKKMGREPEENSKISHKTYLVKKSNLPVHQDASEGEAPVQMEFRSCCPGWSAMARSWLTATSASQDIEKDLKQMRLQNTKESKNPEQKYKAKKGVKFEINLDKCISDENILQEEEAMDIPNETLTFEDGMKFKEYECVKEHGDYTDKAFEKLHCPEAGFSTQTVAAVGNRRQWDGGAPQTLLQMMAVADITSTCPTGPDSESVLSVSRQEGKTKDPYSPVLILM
Sequence of Myosin light chain kinase 2, skeletal/cardiac muscle (Homo sapiens) (Q9H1R3 whole entry, the tested form may be a part): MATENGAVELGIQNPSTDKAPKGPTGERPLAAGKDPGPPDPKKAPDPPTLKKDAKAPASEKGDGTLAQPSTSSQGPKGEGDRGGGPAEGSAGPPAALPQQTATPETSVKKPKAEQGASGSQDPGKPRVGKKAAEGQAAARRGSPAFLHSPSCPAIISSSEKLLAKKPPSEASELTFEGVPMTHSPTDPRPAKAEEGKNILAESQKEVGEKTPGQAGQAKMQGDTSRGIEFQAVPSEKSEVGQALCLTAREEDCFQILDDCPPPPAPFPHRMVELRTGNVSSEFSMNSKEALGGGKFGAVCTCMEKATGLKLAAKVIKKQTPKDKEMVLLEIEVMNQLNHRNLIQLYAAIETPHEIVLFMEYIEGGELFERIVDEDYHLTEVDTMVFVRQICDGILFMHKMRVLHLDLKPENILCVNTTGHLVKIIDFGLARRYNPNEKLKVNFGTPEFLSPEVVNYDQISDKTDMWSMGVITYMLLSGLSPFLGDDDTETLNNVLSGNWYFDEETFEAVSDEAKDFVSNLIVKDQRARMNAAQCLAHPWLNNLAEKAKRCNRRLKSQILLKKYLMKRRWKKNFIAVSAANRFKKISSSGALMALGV

One may read the inhibition as the relative decrease from the control value, in per cent. Regarding `O=C1c2ccc(Nc3ccc(F)cc3F)cc2CCc2ccc(OC[C@H](O)CO)cc21` [Skepinone-L], the Activity in [1] amounted to 100%; in series [2], 100%; in [3] it was 100%; in series [4], 103%; in [5] it was 80%; in [6], 71%. Further, the Activity stood at 97% in series [7], 92% in [8], 88% in [9] and 93% in series [10]. The IC50 entry in series [11] is listed as “Not Active”. Also, the inhibition at 10 µM at CYP2D6 was -21%.
